Consider 2 compounds from paper PMC5742583, “A Functional Analysis on the Interspecies Interaction between Mouse LFA-1 and Human Intercellular Adhesion Molecule-1 at the Cell Level” (Frontiers in Immunology, 2017).

The subject of one assay is ICAM-1/LFA-1 interaction. Conditions: cited from earlier work. The procedure: Human and mouse LFA-1-derived peptides (human: CD11a237–261; mouse: CD11a235–259) were purchased from GenScript (Piscataway, USA) without any modification. […] Besides, incubation cells with a mouse antiCD1 ...
The next assay concerns Mac-1. Particulars: ref [42], [43]; cited from earlier work. The text has this: (§1) In contrast, cell aggregates were clearly visible in cultures after stimulation (Figure 3A, b). […] Macrophage phenotype was confirmed by testing surface antigens by flow cytometry. Monocyte-derived macrophages expressed higher levels of HLA-DR and CD14 than undifferentiated monocytes ([51]). In addition, expression of CD54 (ICAM-1) was diminished in comparison with freshly isolated monocytes (Figure 6B). […] As shown ...

The next assay has as its system VLA-4. Particulars: ref [42], [43]; cited from earlier work.
From the text: as §1

The subject of assay [1] is mouse B cells (ICAM-1/LFA-1 interaction). Nature of the assay: Homotypic B cell aggregation assay. It counts as cell-based. Particulars: EGTA 1 mM; splenocytes activated with PHA and ionomycin, overnight 37°C; clumping index 1-10. The procedure:
To obtain these cells, mice were sacrificed by cervical dislocation, the spleens were removed, and splenocytes were isolated and resuspended in RPMI 10% FBS at a final concentration of 10^6 cells/ml. Cells were treated with 10 µg/ml PHA and 1 µg/ml ionomycin to activate LFA-1 and incubated at 37°C 5% CO2 overnight in flat bottom 96-well plates (10^5 cells) in the presence of peptides from LFA-1 and c-Myc (control) 250 µM, D1D2, D1D2Fc, and human IgG1 10 µg, EGTA 1 mM and lovastatin 100 µM. A qualitative aggregation assay was carried out as described ([36], [41]) with a slight modification. Briefly, positive control stimulated cell samples were arbitrarily assigned a clumping index of 10 and lovastatin samples an index of 1. Test samples were ranked from 1 to 10 based upon degree of clumping relative to stimulated and lovastatin-treated samples. Results were verified by a blind independent rating performed by a second observer.
Fresh mouse B cells were obtained from splenocytes and stimulated with PHA and ionomycin to induce homotypic adhesion. The results were quantified by establishing a clumping index that represents the degree of cell aggregation, which reflects the inhibition efficiency (Figure 3B). Cell aggregation was ranked by a clumping index from 1 to 10 based on the degree of aggregation in comparison with the stimulated cells (positive control, clumping index = 10).
Figure 3 Effect of human (ICAM-1) on the aggregation of mouse spleen cells. (A) Splenocytes isolated from mice were non treated (a) or activated with PHA (b–i) as described in Section “Experimental Procedures” and further incubated overnight with (b) medium; (c) IgG1; (d) c-Myc peptide; (e) EGTA; (f) lovastatin; (g) D1D2; (h) D1D2Fc; (i) mouse LFA-1 peptide CD11a235–259. Images were taken with an optical microscope (original magnification, 10×). Representative images from two independent experiments with similar results are shown. (B) The graph represents the rate of agglutination depending on the inhibitory effect on ICAM-1/LFA-1 interaction. Cells stimulated with PHA and ionomycin, which served as a positive control, were arbitrarily assigned agglutination index 10, which represents a percentage of aggregation between 90 and 100%. Homotypic aggregation was classified from 1 to 10 depending on the degree of aggregation relative to cells stimulated. The result was verified by a second independent observer. Values are presented as mean ± SEM of two separate experiments performed by duplicate. Statistical analysis was performed using two-way analysis of variance with Bonferroni’s posttest comparing with c-Myc peptide control. *p < 0.05; ***p < 0.001.

For assay [2], the system named is K562 cells killed by human NK cells (ICAM-1/LFA-1). The assay is described as follows: NK cell-mediated cytotoxicity on K562. Particulars: peptide 250 µM, preincubation 45 min 37°C; effector:target 3:1, 4 h; annexin-V/7-AAD by FACS; vs c-Myc control; two experiments by duplicate. It counts as cell-based. The procedure: The effect of human and mouse peptides derived from LFA-1 on ICAM-1/LFA-1 dependent cell–cell contact was analyzed by performing a cell cytotoxicity assay using human primary NK cells and the NK cell sensitive human leukemia K562. Primary activated human NK cells were generated by culturing PBMCs with mitomycin C inactivated R69 cells for 5 days and enriched by MACS using anti-CD56 antibodies as previously described ([39]). Cell cytotoxicity induced by NK cells on K562 was analyzed by flow cytometry as previously described ([39]). Briefly, K562 cells were preincubated with medium alone, in the presence of 250 µM of human and mouse peptides from LFA-1 or D1D2 (15 µg) for 45 min at 37°C. Then, NK cells were added at 3:1 effector:target cell ratio and incubated for 4 h at 37°C, 5% CO2. Subsequently, phosphatidylserine exposure and 7-AAD uptake were analyzed by FACS using the annexin-V/7-AAD kit from Immunostep. As a control, the cells were incubated alone with the inhibitors to evaluate their possible toxicity, which was not significant in any case.
Figure 4 Inhibition of natural killer (NK) cell-mediated cytotoxicity by human intercellular adhesion molecule-1. […] Cell death was analyzed by measuring translocation of PS by flow cytometry in the negative population for CFSE as described in experimental procedures. […]
(In general: Flow cytometry measures light scatter and fluorescence of single cells or particles in a stream.)

The target in another assay is T1, D1D2Fc (Homo sapiens, UniProt P05362).
T1 construct: The synthetic first two domains of ICAM-1 alone (D1D2) or linked with human IgG1 Fc region (D1D2Fc) were expressed in Escherichia coli; made in house; host or cells: Escherichia coli
Conditions: peptide derived from human LFA-1, observed previously, ref [34], cited from earlier work. The text has this:
In a previous work, we have shown that purified human recombinant ICAM-1 was able to interact with peptides derived from human LFA-1 ([34]). […] The complex formation was net exothermic as would be expected for a reaction in which specific intermolecular interactions are established. Besides, if there were no interaction, there would not be any signal. This value was obtained by fitting to the binding isotherm a 1:n interaction model, which assumes a single type of binding sites.

Read-outs that look alike come from different tables or passages of the source.

T1 sequence (P05362 with tags, fused parts or gaps limits assumed): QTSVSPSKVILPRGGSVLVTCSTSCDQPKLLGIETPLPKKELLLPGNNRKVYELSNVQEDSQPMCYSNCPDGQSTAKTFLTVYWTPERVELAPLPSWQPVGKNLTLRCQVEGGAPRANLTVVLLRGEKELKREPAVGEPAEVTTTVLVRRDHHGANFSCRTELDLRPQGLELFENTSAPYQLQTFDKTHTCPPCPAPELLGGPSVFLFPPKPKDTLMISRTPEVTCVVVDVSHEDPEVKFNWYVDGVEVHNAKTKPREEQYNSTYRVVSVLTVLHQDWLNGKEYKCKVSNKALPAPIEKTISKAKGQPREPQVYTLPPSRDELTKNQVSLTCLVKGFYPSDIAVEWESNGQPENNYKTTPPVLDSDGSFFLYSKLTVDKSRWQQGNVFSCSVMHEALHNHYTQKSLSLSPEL

Consider `O=C(O)CN(CCOCCOCCN(CC(=O)O)CC(=O)O)CC(=O)O` [EGTA, reference compound], for which, in the assay on ICAM-1/LFA-1 interaction (ref [42], [43]), the “specific block of ICAM-1/LFA-1 interaction” value is given as “specifically block ICAM-1/LFA-1 interaction”. Also, the “effect on Mac-1” value in the assay on Mac-1 is recorded as “without affecting”. Further, the “effect on VLA-4” value with VLA-4 is given as “without affecting”. Further, the “inhibition of B cell aggregation” value in assay [1] was “inhibit completely the aggregation”.

“ITDGEATDSGNIDAAKDIIRYIIGI [CD11a237–261, human LFA-1-derived peptide, purchased from GenScript without any modification]”: the “inhibition of NK cell-mediated cell death of K562” value in assay [2] is “blocked NK cell-mediated cell death”. Moreover, the “ability to block ICAM-1/LFA-1 interaction” value with ICAM-1/LFA-1 interaction (ref [36]) was “ability to block ICAM-1/LFA-1 interaction”. The figures for the “affinity for human ICAM-1 (D1D2Fc), in words” value on D1D2Fc and on D1D2Fc (listed as peptide of human LFA-1) were “similar” and “highest affinity”, respectively.
